From patent publication US10632121B2, “Platelet-derived growth factor receptor mutations and compositions and methods relating thereto” (MEMORIAL SLOAN KETTERING CANCER CENTER, priority 2014, dated 2020)
Values joined by “and” are separate entries in the source; they are usually repeats but may differ in a detail not shown here. Identical values can stand only once.

Tests used:
PI3K/mTOR pathway = test: Clinical trial: IHC of PI3K/mTOR pathway markers in GBM tumor tissue; type: in vivo, human; details: patients treated 10-28 days before surgery
Experimental: To evaluate pharmacodynamic effects in tumor tissue, immuno-histochemistry (IHC) was performed with phosphorylation-site specific antibodies against four PI3K/mTOR pathway components: Proline-Rich Akt Substrate of 40-kDa (PRAS40, threonine246), ribosomal protein S6 kinase 1 (S6K1, threonine 389), eukaryotic translation initiation factor 4E-binding protein 1 (4E-BP1, threonine 37/46), and S6 Ribosomal Protein (S6RP, serine 235/236) (FIG. 1D). For each marker staining of several thousand tumor cells was quantified and the staining intensity in the “on-treatment”-biopsy (Surgery 2) was compared with the staining intensity in the tumor sample collected from the same patient at diagnosis (Surgery 1). This “matched-pair” analysis included 19/21 evaluable patients (Table 3) who received at least one dose of study drug, had detectable phospho-S6RP in the pre-treatment sample (Surgery 1), and had tissue of sufficient quality collected on treatment (Surgery 2).
The design of the trial allowed comparison of the initial glioma (Surgery 1) in these patients to the recurrent glioma which was treated with drug before surgical resection (Surgery 2). Immunohistochemical staining (IHC) was performed on the samples and pathway inhibition was measured via pS6 Ser235/6, pS6K1 Thr389, p4E-BP1 Thr37/46, and pPRAS40 Thr246 (FIG. 1E, upper panel). Cellular proliferation was measured via Ki-67 IHC. […]
Immunohistochemical (IHC) staining of patient samples was performed on formalin-fixed paraffin-embedded (FFPE) tumor tissues collected at the initial surgery and recurrent tumor surgery. […] Immunoreactivity was detected using NovaRED Peroxidase Substrate kit (Vector Labs SK-4800) and sections were counterstained with hematoxylin.
To analyze pathway inhibition, three representative tumor images from each slide stained with phospho-proteins were taken, after determining the presence of tumor cells based on hematoxylin staining evaluation. […] The tumor to normal ratio was calculated by dividing the average of the tumor images by the average of the normal tissue image. […]

glioblastoma tumor cells = test: Clinical trial: Ki-67 IHC tumor cell proliferation; type: in vivo, human
Experimental: The design of the trial allowed comparison of the initial glioma (Surgery 1) in these patients to the recurrent glioma which was treated with drug before surgical resection (Surgery 2). Immunohistochemical staining (IHC) was performed on the samples and pathway inhibition was measured via pS6 Ser235/6, pS6K1 Thr389, p4E-BP1 Thr37/46, and pPRAS40 Thr246 (FIG. 1E, upper panel). Cellular proliferation was measured via Ki-67 IHC. These IHC measurements were compared to one another and reported as a percentage decrease or increase of Surgery2/Surgery 1. Samples which had reduction of all four phospho-protein measurements in Surgery 2 also had the greatest relative decreases in cellular proliferation (FIG. 1E, lower panel). Samples which had no inhibition of any pharmacodynamic biomarker or inhibition of only one pharmacodynamic biomarker were most likely to see a relative increase in proliferation.
To compare the relative change in cellular proliferation in the three drug arms and a drug naïve population, a control population was formed of patients who had not been treated with any PI3K inhibitor and surgical samples available from two surgical resections and compared their relative proliferation via Ki-67 IHC (FIG. 12A). This control group was compared with the three arms of the trial. […] There was no statistically significant change in proliferation between the control group and the other arms of the trial.
To determine the Ki-67 labeling index, slides were analyzed as with the phospho-proteins, and the number of positively stained and total number of cells was determined for each image. The percentage of Ki-67 positive cells was calculated for each image, then the three images were averaged.

recurrent glioblastoma = test: Clinical trial: time to progression and tumor response; type: in vivo, human
[1] = Clinical trial: primary reason for discontinuation from study treatment; type: in vivo, human; details: SAR408 200 mg once daily (N = 6)
Source text: All 21 patients discontinued treatment prior to receiving 1 year of postsurgery treatment. Time to tumor progression (TTP) for all patients is presented FIG. 2A.

PI3Kα = PI3Kα (Homo sapiens, UniProt P42336); details: cited from earlier work
PI3Kα, sequence (P42336 whole entry): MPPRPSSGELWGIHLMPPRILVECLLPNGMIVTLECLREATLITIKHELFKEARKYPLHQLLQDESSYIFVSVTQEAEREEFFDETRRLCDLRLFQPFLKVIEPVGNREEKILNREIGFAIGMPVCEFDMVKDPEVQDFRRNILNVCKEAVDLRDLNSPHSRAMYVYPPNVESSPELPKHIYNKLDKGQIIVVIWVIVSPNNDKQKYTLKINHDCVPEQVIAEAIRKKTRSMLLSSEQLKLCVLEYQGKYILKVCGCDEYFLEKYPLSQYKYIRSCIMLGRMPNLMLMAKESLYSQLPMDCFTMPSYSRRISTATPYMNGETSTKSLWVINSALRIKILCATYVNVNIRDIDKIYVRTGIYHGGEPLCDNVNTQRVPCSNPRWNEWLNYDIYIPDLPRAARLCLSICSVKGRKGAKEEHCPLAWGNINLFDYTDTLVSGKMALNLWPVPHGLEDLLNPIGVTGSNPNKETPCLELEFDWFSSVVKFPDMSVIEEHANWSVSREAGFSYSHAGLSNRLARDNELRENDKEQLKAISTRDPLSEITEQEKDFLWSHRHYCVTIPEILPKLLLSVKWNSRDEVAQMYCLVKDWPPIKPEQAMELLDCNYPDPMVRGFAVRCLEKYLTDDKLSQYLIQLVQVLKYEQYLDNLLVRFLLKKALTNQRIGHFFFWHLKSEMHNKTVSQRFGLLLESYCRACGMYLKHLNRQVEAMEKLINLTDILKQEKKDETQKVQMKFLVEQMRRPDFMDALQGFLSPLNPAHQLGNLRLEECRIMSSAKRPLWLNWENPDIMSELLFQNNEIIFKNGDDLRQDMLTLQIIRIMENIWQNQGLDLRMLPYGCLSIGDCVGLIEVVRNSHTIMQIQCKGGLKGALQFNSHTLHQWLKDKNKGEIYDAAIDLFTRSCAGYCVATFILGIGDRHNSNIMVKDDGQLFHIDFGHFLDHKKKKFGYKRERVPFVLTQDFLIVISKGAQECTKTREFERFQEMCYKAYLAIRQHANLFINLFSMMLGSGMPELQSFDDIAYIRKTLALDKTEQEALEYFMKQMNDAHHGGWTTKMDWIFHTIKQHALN
PI3Kα, sequence (P27986 whole entry partner): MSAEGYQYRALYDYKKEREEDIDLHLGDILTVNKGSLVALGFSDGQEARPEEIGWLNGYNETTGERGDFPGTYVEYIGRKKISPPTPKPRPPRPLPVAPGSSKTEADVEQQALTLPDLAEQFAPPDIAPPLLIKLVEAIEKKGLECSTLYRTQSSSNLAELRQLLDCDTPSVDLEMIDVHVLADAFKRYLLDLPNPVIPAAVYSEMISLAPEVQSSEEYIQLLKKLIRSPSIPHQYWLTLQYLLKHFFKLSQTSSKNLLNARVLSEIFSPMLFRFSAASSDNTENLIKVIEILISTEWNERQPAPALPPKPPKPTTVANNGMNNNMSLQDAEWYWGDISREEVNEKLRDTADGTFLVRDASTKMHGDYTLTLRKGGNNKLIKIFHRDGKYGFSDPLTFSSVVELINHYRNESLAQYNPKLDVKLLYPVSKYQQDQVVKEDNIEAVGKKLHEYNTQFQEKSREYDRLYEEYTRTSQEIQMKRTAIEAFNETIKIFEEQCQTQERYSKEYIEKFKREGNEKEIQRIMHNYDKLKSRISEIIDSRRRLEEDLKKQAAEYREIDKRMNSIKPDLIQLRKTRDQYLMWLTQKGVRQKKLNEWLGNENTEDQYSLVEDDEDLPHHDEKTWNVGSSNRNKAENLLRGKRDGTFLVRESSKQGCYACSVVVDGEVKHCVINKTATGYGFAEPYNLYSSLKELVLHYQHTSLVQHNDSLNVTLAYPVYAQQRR

PI3Kβ = PI3Kβ (Homo sapiens, UniProt P42338); details: cited from earlier work
PI3Kβ, sequence (P42338 whole entry): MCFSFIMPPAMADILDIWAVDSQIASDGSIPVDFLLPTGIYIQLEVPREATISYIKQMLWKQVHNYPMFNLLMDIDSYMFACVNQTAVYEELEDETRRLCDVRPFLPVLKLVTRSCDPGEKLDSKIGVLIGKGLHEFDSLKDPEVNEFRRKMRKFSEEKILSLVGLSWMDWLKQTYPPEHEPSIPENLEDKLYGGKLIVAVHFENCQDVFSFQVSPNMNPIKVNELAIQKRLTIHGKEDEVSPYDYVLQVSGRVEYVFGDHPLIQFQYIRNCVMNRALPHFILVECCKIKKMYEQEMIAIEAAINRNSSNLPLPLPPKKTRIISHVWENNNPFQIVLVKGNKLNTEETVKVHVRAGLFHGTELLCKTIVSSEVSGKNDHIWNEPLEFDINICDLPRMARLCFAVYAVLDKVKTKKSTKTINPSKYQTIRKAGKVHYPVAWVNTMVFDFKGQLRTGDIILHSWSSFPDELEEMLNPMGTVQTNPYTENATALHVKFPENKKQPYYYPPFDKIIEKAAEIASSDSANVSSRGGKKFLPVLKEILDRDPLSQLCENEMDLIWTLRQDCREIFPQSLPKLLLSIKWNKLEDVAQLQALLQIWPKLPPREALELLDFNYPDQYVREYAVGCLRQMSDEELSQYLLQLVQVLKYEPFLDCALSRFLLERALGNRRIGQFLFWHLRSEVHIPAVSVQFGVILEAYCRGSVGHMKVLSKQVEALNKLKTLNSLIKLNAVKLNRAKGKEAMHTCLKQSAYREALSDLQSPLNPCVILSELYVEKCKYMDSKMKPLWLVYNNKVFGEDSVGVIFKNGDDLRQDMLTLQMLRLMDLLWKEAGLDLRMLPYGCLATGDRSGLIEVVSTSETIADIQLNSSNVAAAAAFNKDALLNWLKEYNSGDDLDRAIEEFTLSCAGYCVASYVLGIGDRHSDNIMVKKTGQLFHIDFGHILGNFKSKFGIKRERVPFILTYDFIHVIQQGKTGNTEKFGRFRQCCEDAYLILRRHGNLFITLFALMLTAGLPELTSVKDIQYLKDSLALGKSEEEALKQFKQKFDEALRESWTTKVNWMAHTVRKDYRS
PI3Kβ, sequence (P27986 whole entry partner): as the sequence (P27986 whole entry partner) above

PI3Kδ = PI3Kδ (Homo sapiens, UniProt O00329); details: cited from earlier work
PI3Kδ, sequence (O00329 whole entry): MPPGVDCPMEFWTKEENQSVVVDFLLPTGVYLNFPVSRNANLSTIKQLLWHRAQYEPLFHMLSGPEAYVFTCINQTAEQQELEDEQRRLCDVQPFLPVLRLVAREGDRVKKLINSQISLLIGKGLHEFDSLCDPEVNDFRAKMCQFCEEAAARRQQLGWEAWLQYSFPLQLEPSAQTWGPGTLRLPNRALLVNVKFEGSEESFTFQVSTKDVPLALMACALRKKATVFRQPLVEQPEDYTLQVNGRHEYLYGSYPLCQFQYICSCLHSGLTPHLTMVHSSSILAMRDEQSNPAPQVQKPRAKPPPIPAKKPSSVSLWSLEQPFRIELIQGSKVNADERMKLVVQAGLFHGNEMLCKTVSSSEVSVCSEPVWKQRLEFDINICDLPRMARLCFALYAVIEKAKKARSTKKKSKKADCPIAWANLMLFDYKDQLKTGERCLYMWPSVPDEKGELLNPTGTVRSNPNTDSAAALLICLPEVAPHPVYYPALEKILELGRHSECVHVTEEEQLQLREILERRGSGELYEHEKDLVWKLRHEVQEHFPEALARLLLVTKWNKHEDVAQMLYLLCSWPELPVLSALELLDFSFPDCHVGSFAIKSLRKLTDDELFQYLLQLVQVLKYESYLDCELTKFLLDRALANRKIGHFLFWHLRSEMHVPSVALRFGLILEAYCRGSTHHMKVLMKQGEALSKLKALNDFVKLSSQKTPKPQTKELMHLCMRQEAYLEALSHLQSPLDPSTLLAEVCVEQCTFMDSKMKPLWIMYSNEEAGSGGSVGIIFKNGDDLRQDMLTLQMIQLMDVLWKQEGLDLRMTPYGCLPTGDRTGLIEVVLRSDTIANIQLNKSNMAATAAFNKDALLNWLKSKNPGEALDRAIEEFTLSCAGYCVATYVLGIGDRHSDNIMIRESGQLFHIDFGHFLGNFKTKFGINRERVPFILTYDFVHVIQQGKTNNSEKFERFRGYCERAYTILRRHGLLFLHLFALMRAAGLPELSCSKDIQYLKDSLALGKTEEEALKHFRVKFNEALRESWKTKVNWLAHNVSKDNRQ
PI3Kδ, sequence (P27986 whole entry partner): as the sequence (P27986 whole entry partner) above

PI3Kγ = PI3Kγ (Homo sapiens, UniProt P48736); details: cited from earlier work
PI3Kγ, sequence (P48736 whole entry): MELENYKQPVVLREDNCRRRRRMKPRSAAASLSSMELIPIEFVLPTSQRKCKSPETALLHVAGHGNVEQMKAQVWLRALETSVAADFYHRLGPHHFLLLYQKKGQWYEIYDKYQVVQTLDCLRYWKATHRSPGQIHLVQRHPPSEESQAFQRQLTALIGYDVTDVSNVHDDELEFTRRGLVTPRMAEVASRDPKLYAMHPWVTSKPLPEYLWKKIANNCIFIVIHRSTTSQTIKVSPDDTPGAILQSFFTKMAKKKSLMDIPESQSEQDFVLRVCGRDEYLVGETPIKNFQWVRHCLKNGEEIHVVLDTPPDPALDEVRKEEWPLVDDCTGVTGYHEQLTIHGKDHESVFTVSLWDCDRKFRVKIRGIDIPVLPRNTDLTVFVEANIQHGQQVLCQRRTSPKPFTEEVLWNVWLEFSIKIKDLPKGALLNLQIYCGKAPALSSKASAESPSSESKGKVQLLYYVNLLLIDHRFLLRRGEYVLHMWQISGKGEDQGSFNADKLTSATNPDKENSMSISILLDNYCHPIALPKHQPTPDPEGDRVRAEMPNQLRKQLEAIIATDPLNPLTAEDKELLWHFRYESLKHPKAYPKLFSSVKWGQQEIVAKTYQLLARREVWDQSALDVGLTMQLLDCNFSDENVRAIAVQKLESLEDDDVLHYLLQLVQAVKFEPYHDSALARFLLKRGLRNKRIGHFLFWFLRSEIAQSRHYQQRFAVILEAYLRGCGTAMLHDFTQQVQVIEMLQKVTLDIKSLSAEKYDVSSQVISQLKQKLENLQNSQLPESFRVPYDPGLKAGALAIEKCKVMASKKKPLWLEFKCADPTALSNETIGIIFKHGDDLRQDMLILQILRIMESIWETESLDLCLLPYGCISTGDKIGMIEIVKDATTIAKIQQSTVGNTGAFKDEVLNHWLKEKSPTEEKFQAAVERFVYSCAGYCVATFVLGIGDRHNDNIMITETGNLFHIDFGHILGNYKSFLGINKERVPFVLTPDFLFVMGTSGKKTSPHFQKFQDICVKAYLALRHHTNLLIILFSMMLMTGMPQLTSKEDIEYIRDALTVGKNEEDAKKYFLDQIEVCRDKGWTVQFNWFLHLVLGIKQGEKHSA

mTOR = mTOR (Homo sapiens, UniProt P42345); details: cited from earlier work
[2] = tested on: panel of 130 other kinases; details: Cloughesy et al., 2013; cited from earlier work
[3] = Clinical trial: safety, adverse events (CTCAE v4.0)
[4] = SAR408 200 mg once daily (N = 6)

Question: What does the source list for `COc1ccc(Cl)c(Nc2nc3ccccc3nc2NS(=O)(=O)c2cccc(NC(=O)C(C)(C)N)c2)c1` [SAR408, pilaralisib]?
Answer: PI3K/mTOR pathway inhibition in tumor, Surgery 2 vs Surgery 1 (PI3K/mTOR pathway): Inhibition of the PI3K/mTOR Pathway; change in proliferation (Ki-67) compared to untreated control population (glioblastoma tumor cells; 200 mg/QD SAR245408 arm): not significantly different; cellular proliferation in tumor, Surgery 2 vs Surgery 1 (glioblastoma tumor cells; patients treated 10-28 days before surgery): Reduced Cellular Proliferation; TTP (time to progression), individual patients (recurrent glioblastoma; SAR408 200 mg/QD): 6.14 wks (2×) and 18.29 wks and 10.14 wks and 6 wks and 4.57 wks; median time to progression (recurrent glioblastoma; SAR245408 arm): 6.14 weeks; range of time to progression (recurrent glioblastoma; SAR245408 arm): 4.57-18.29 weeks; Discontinuation: Adverse Event or SAE unrelated to disease progression [1]: 0 n (%); Discontinuation: Clinical disease progression per principal investigator [1]: 0 n (%); Discontinuation: Disease progression per modified RANO [1]: 6 (100.0) n (%); IC50 (PI3Kα): 48 nM; IC50 (PI3Kβ): 617 nM; IC50 (PI3Kδ): 10 nM; IC50 (PI3Kγ): 260 nM; IC50 (mTOR): > 15 µM; inhibition of a panel of 130 other kinases [2]: do not significantly inhibit; Patients with any Grade 3/4 TEAE [3, 4]: 2 n (%) and 2 (33.3) n (%); Patients with any Grade 3/4 treatment-emergent SAE [3, 4]: 1 (16.7) n (%); Patients with any TEAE [3, 4]: 6 (100.0) n (%); Patients with any TEAE leading to death [3, 4]: 0 n (%); Patients with any TEAE leading to dose reduction or interruption [3, 4]: 0 n (%); Patients with any TEAE leading to permanent treatment discontinuation [3, 4]: 0 n (%); Patients with any related Grade 3/4 TEAE [3, 4]: 0 n (%); Patients with any related Grade 3/4 treatment-emergent SAE [3, 4]: 0 n (%); Patients with any related TEAE [3, 4]: 3 n (%) and 3 (50.0) n (%); Patients with any related treatment-emergent SAE [3, 4]: 0 n (%); Patients with any treatment emergent SAE [3, 4]: 1 n (%) and 1 (16.7) n (%); TEAEs of ALT increased, AST increased, blood bilirubin increased or gamma-glutamyltransferase increased ([3]; SAR408 once daily cohort): No TEAEs; drug-related TEAE: fatigue ([3]; all cohorts of the drug pooled): 2 patients; tolerability of postoperative treatment ([3]; seventeen patients who resumed drug postoperatively): tolerated it well
